These results are taken from the RepoRT retention time repository.

Molecules are shown by their SMILES.

The data set in a line: Agilent ZORBAX 300 SB-C18, 150 × 1 mm, 3.5 µm; A: water + 0.01% heptafluorobutyric acid; B: acetonitrile + 0.01% heptafluorobutyric acid; gradient (min/%B) 0/0 100/90. The following applies: stereoisomer not certain.
On to `O=C(CCCN1C(=O)c2ccccc2C1=O)OCc1ccccc1`, for which the LC retention time turned out to be 15.1 min.
The figure for `O=c1ccc2ccccc2[nH]1` is 8.83 min; for `O=C1OCc2c1[nH]c(=O)[nH]c2=O` it is 1.27 min.
For `CCC1(c2ccccc2)C(=O)NC(=O)N(C)C1=O` (stereo unspecified) the value was 11.3 min; for `O=C(O)Cc1c[nH]c(=O)[nH]c1=O`, 2.17 min; for `CC(N)C(=O)Nc1ccc2ccccc2c1` (stereo unspecified), 9.02 min.
For `CC(C)(C)c1ccc2[nH]c3c(c2c1)CCCC3=O` the value was 16.5 min; for `CN(C)c1ccncc1N`, 7.03 min; for `O=C(O)c1c(-c2ccccc2)c(-c2ccccc2)n[nH]c1=O`, 9.72 min.
Turning to `O=C1NCC2(CCN(CCc3ccccc3)CC2)O1`, the LC retention time amounted to 8.72 min.
For `Cc1nnc(Oc2ccccc2)c2ccccc12` the value was 10.8 min; for `CCOC(=O)C1(c2ccccc2)CCN(CCc2ccc(N)cc2)CC1`, 10.1 min; for `CC(COc1ccccc1)NC(C)C(O)c1ccc(O)cc1` (stereo unspecified), 9.89 min.
For `O=C(O)CCCC(=O)Nc1ccccc1` the value was 8.72 min; for `Nc1cccc2c1CCC2`, 8.43 min; for `c1ccc(-c2ccc3ccccc3n2)nc1`, 11.3 min.
For `CC1(C)CC(NC(=O)C(=O)NCCc2ccccc2)CC(C)(C)N1` the value was 9.44 min; for `CC(=O)N=Nc1c(O)[nH]c2ccccc12`, 7.66 min.
With `C#CC(C)(CC)NC(=O)CCc1ccccc1` (stereo unspecified), the LC retention time is 13 min.
`CCn1c(C)cc(C=O)c1C`: the LC retention time was 9.93 min.
On to `CCCCCCCCCCCC[N+](C)(C)CCOc1ccccc1`, for which the LC retention time is 16.6 min.
For `CN1C(=O)C(CC(=O)NC2CCCCC2)N(C)C1=O` (stereo unspecified) the value was 8.55 min; for `COc1ccc(OC)c2c1C(c1cccc(N)c1)OC1CCCCC21` (stereo unspecified), 12.9 min.
Consider `c1ccc(CN(CC2=NCCN2)c2ccccc2)cc1`, for which the LC retention time came out at 10.1 min.
Consider `Cc1ccc(CNC(=S)Nc2ccccc2)n1C`, for which the LC retention time is 13.1 min.
For `O=c1c2n[nH]nc2cnn1-c1ccccc1` the value was 8.76 min.
The figure for `NCC1CCNCC1` is 6.49 min; for `O=C1C(=Cc2ccoc2)CCCC1=Cc1ccoc1` it is 15.7 min; for `CNC(C)(C)Cc1ccccc1` it is 8.99 min.
The figure for `CCCCN(CCCC)C(=O)c1ccc(OC(C)=O)cc1` is 15.3 min; for `COc1ccccc1NC(=O)C(c1ccccc1)c1ccccc1` it is 16.6 min; for `CC(C)n1c2ccccc2c2ccccc21` it is 18.2 min.
On to `C1CCC(OCCNCCOC2CCCCC2)CC1`, for which the LC retention time came to 12 min.
For `Cc1cc(O)c(C(C)C)cc1CNC(=O)c1ccccc1O` the value was 14.4 min; for `CC(C)c1ccccc1NC(=O)c1cc2ccccc2o1`, 15.9 min; for `Cc1ccc(C(=O)C=Cc2sccc2C)cc1`, 17.4 min.
The figure for `CC(=O)Nc1cc(NC(C)=O)nc(NC(C)=O)n1` is 7.21 min; for `CC(C)(C)NCC(O)COc1cccc2c1CC(O)C(O)C2` (stereo unspecified) it is 8.31 min; for `Cn1c(C(C)(C)C)nc(N)nc1=O` it is 7.21 min.
For `CCCCCCCCCCCCN(C)C` the value was 13.7 min.
In the case of `Cc1ccc2nc(C)[nH]c2c1`, the LC retention time stood at 8.32 min.
For `CCN(CC)CCN(CC)CC` the value was 7.19 min.
For `CC1(C)Cc2ccccc2C(C2=C(O)CCCC2=O)=N1` the value was 10.1 min; for `S=c1nccc(-c2ccc3ccccc3c2)[nH]1`, 10.6 min.
For `CC(=O)NC1CCN(C)C2CCCCC12` (stereo unspecified) the value was 7.11 min.
For `CCOc1cc(C(=O)N(CC)c2ccccc2)cc(OCC)c1OCC`, the LC retention time worked out at 15.9 min.
The figure for `CCCCCCC=CC(C)=O` is 16.2 min; for `O=C(Cn1ccc(=O)[nH]c1=O)NCCO` it is 2.12 min.
For `C=CCNC1(c2ccccc2)CCCCC1`, the LC retention time came to 9.71 min.
For `O=C(O)C=CC(=O)N1CCc2ccccc21` the value was 9.97 min; for `CCCCN(CC)CC`, 7.73 min; for `CCCCN`, 6.72 min.
The figure for `Nc1ccc(N2CCCC2=O)cc1` is 7.31 min; for `Cc1ccc(-c2ccc(CCC(=O)O)n2CC(=O)O)cc1` it is 11.5 min; for `Cn1c(C(c2ccccc2)c2ccccc2)n[nH]c1=S` it is 12.9 min.
The figure for `Cc1nc2ccccc2nc1CN1C(=O)C2CC=CCC2C1=O` (stereo unspecified) is 11.9 min; for `CN(C)CCCNC(=O)C(=O)NC1CC1` it is 6.89 min; for `O=c1[nH]c2ccccc2n1CCOc1ccccc1` it is 12.2 min.
For `Nc1cccc2cc[nH]c12`, the LC retention time came to 8.08 min.
The figure for `CCC(C)C(N)C(=O)N1CCCC1C(=O)NC(C(=O)O)C(C)CC` (stereo unspecified) is 8.56 min; for `Cc1[nH]c2ccc(C(=O)O)cc2c1CC(=O)O` it is 8.13 min.
For the compound `CCCCCCC[n+]1ccc(-c2cc[n+](CCCCCCC)cc2)cc1`, the LC retention time was found to be 10.5 min.
The figure for `CC(N)CCCC(C)(C)O` (stereo unspecified) is 7.64 min; for `CCc1ccc2c(c1)c(C=O)c(C)n2C` it is 12.9 min.
For `Cc1ccc(-c2cnc3ccccc3n2)c(C)c1` the value was 17.4 min.
With `CC(C)=CCN1CC2(C)c3cc(O)ccc3CC1C2C` (stereo unspecified), the LC retention time was determined as 10.3 min.
The figure for `CC(=O)Oc1c[nH]c2ccccc12` is 11.6 min; for `O=C(C(Cc1ccccc1)n1cccc1)N1CCCC1` (stereo unspecified) it is 13.8 min; for `O=Cc1ccc2cccnc2c1` it is 8.85 min.
For `CC(C)Cc1nc2ccccc2n1CC(C)C` the value was 10.9 min; for `CN1C2CCC1C(C(=O)O)C(OC(=O)c1ccccc1)C2` (stereo unspecified), 8.54 min; for `Cc1ccc(N)c(N)c1`, 7.42 min.
For `Cc1ccc2nc3nc(C)cc(C)c3c(N)c2c1` the value was 8.99 min.
For the compound `O=C(O)CNc1ccccc1C(=O)O`, the LC retention time was 9.2 min.
For `CC1CCCCN1C(=S)NCc1ccccc1` (stereo unspecified) the value was 14.3 min.
The figure for `Cc1cccc(C=NNC(=O)C[n+]2ccccc2)c1` is 9.09 min.
For `CC(C)(C)NC(=S)NCc1ccccc1` the value was 13.4 min; for `c1ccc(CN(c2ccccn2)c2ccccn2)cc1`, 11 min; for `CCn1c2ccccc2c2cc(C=Nn3c(C)cc(C)cc3=O)ccc21`, 15.9 min.
`COc1ccc(CN(CCN(C)C)c2ccccn2)cc1`: the LC retention time was found to be 10.1 min.
For `O=c1[nH]c2ccccc2c(=O)n1-c1cccnc1`, the LC retention time stood at 8.1 min.
